Molecules are shown by their SMILES. Peptide text beside a SMILES is read from it. Bounds are passed on as bounds.

For series [1], the target named is T1, Thrombospondin-1 (Homo sapiens, UniProt P07996). The series can be described thus: Inhibition of recombinant human TSP1 P123 expressed in baculovirus system binding to recombinant human LAP at 10 nM preincubated for 10 mins followed by recombinant human LAP addition and measured after 2 hrs by ELISA relative to control. (In an ELISA, binding on a coated surface is turned into a signal by an enzyme label.)
Target sequence in this assay (P07996 19-1170 limits assumed): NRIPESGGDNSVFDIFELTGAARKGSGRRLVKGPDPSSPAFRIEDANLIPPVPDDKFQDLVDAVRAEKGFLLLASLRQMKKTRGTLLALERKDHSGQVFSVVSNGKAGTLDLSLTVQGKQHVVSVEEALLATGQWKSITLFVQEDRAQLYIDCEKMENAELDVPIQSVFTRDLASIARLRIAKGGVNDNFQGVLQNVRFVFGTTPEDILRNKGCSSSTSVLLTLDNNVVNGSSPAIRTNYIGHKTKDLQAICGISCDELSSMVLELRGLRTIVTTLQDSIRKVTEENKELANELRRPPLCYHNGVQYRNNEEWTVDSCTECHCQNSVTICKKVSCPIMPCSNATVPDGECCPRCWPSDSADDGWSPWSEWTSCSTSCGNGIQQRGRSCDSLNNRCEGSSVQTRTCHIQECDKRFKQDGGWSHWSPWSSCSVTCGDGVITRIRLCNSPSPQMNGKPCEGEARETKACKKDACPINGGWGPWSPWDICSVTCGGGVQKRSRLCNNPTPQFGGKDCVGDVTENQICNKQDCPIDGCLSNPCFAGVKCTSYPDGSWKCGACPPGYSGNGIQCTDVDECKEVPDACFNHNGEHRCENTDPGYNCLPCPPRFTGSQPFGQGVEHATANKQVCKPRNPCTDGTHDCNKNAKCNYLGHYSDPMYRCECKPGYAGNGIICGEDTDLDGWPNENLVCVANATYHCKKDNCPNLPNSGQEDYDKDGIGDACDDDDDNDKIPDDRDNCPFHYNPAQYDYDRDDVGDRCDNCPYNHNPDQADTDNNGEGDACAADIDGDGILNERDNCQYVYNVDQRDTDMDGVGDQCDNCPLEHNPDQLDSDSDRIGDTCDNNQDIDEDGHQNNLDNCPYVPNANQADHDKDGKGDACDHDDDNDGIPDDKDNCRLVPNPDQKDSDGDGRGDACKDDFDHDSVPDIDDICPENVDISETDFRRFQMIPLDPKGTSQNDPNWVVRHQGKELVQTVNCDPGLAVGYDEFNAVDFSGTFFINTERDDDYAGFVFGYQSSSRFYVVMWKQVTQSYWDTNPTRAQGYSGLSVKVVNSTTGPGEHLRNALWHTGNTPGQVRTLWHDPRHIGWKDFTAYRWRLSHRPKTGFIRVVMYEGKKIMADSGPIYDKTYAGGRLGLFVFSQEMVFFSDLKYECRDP

Series [2] deals with T1, Thrombospondin-1. The series can be described thus: Inhibition of TSP1 in human myeloma cells assessed reduction in TGFbeta activity incubated for 1 hr by ELISA. The format is cell-based.
Target sequence in this assay (P07996 whole entry): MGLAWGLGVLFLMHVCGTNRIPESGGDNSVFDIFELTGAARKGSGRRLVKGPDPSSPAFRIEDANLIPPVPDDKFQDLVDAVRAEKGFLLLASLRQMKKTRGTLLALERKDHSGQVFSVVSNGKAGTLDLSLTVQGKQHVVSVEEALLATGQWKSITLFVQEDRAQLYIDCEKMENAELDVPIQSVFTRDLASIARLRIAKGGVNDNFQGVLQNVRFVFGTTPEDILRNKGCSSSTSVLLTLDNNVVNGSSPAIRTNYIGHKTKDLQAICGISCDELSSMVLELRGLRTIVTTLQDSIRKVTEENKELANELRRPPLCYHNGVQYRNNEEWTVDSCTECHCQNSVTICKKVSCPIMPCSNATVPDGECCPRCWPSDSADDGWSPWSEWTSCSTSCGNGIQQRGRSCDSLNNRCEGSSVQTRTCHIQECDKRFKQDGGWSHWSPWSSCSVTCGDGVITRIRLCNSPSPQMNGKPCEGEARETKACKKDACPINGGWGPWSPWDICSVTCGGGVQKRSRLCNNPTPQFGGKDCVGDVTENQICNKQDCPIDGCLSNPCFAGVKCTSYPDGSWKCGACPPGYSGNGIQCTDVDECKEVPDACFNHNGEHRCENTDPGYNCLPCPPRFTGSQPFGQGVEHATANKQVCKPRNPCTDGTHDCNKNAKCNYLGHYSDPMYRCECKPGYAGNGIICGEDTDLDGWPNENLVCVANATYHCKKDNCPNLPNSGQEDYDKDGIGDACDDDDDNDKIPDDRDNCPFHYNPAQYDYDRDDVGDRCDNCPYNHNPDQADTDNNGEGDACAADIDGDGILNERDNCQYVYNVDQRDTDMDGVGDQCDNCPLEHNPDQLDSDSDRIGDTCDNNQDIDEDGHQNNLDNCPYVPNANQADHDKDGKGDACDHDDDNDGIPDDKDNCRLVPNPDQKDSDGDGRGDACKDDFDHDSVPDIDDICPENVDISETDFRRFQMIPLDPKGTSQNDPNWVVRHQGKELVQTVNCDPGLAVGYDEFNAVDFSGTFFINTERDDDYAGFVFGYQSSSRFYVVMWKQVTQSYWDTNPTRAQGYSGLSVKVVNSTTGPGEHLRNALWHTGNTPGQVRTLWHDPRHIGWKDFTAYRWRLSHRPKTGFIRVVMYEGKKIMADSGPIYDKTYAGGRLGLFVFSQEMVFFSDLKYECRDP
The nature of series [3]: Microsomal stability in rat liver microsomes assessed as half life measured after 45 mins in presence of NADPH by LC-MS/MS analysis. The format is ADME, Microsome. (In general: Liver microsomes are vesicles of endoplasmic reticulum, rich in cytochrome P450 enzymes.)
A short description of series [4]: Microsomal stability in human liver microsomes assessed as half life measured after 45 mins in presence of NADPH by LC-MS/MS analysis. The format is ADME, Microsome.
The nature of series [5]: Half life in CD1 mouse at 1 mg/kg, iv by LC-MS/MS analysis. The format is ADME, organism-based. As to conditions: in vivo.
Series [6] can be described thus: Half life in ip dosed CD1 mouse by LC-MS/MS analysis. The format is ADME, organism-based. As to conditions: in vivo.
Series [7] can be described thus: Cmax in ip dosed CD1 mouse measured after 0.25 hrs by LC-MS/MS analysis. As to conditions: in vivo. Also noted: route intraperitoneal. The format is ADME, organism-based.
The nature of series [8]: Plasma concentration in CD1 mouse at 1 mg/kg, iv or 5 mg/kg, po measured after 1 hr by LC-MS/MS analysis. The format is ADME, organism-based.
Series [9] can be described thus: Plasma concentration in CD1 mouse at 1 mg/kg, iv or 5 mg/kg, po measured after 2 hrs by LC-MS/MS analysis. Format: ADME, organism-based.
Series [10] is described as follows: Oral bioavailability in CD1 mouse at 5 mg/kg by LC-MS/MS analysis. As to conditions: in vivo. The format is ADME, organism-based.

By inhibition is commonly meant the relative decrease from the control value, in per cent. `CC(=O)N[C@@H](CO)C(=O)N[C@@H](CCCN)C(=O)NC(C)(C)C(N)=O` (HELM PEPTIDE1{[ac].S.[Orn].[Aib].[am]}$$$$V2.0): the inhibition in [1] turned out to be 34%.

Usually IC50 stands for the point on the concentration scale where inhibition reaches its midpoint. On to `CC(=O)N[C@@H](CO)C(=O)N[C@H](CCCCN)C(=O)N[C@@H](CC(C)C)C(N)=O` (HELM PEPTIDE1{[ac].S.[dK].L.[am]}$$$$V2.0), for which, in series [2], the midpoint of inhibition, the IC50, lay at 1.7 nM. In series [2], `CNC(=O)[C@H](CC(C)C)NC(=O)[C@@H](CCCCN)NC(=O)[C@@H](NC(C)=O)[C@@H](C)O` had a concentration for half-maximal inhibition (IC50) of 2.88 nM. On the same count and under the same terms, the result for `CC(=O)N[C@@H](CC(N)=O)C(=O)N[C@@H](CCCCN)C(=O)N[C@@H](CC(C)C)C(N)=O` (Ac-Asn-Lys-Leu-NH2) reads 9.55 nM. `CCC(=O)N[C@@H](CO)C(=O)N[C@@H](CCCCN)C(=O)N[C@@H](CC(C)C)C(N)=O` (HELM PEPTIDE1{[CCC(=O)[*:2]].S.K.L.[am]}$$$$V2.0) gave a concentration for half-maximal inhibition (IC50) in series [2] of 13.5 nM. On the same count and under the same terms, the same measure for `CC(=O)NCC(=O)N[C@@H](CCCCN)C(=O)N[C@@H](CC(C)C)C(N)=O` (Ac-Gly-Lys-Leu-NH2): 14.1 nM; for `CC(=O)NCCCC[C@H](NC(=O)[C@H](CO)NC(C)=O)C(=O)N[C@@H](CC(C)C)C(N)=O` (Ac-Ser-Lys(Ac)-Leu-NH2): 15.1 nM; for `CC(=O)N[C@H](CO)C(=O)N[C@@H](CCCCN)C(=O)N[C@@H](CC(C)C)C(N)=O` (HELM PEPTIDE1{[ac].[dS].K.L.[am]}$$$$V2.0): 0.38 nM.

In series [2], `CC(=O)N[C@@H](CO)C(=O)N[C@@H](CCCCN)C(=O)N[C@@H](CC(C)C)C(=O)N(C)C` (HELM PEPTIDE1{[ac].S.K.L.[CN(C)[*:1]]}$$$$V2.0) showed an IC50 of 3.31 nM.

Broadly, the half-life is how long it takes for the measured level to halve. As usually defined, the Cmax is the highest concentration seen after dosing. Broadly, the bioavailability is the share of a dose that reaches the circulation, judged against a reference dose that is usually intravenous. Lower therefore signals poor availability. `CC(=O)N[C@@H](CCCN)C(=O)NC(C)(C)C(N)=O`: the half-life in series [3] was 2.83 h; in series [4], greater than 5 h; in [5], 0.2 h; in series [6] it was 7 h. This compound also returned a peak concentration (Cmax) in series [7] of 19400 ng/mL. The same compound returned a concentration at 1 h in series [8] of 11.6 µM. In series [9], this compound yielded a concentration at 2 h of 2.1 µM. In [10], this compound displayed a bioavailability of 9%. In series [2], this compound had an IC50 of 7.59 nM. For the same compound, the inhibition in series [1] amounted to 85%.

As for `CC(=O)N[C@@H](CO)C(=O)N[C@@H](CCCCN)C(=O)N(C)[C@@H](CC(C)C)C(N)=O` (HELM PEPTIDE1{[ac].S.K.[meL].[am]}$$$$V2.0), the IC50 in series [2] was 2.24 nM.

Take `CC(=O)N[C@@H](CO)C(=O)N[C@@H](CCCCN(C)C)C(=O)N[C@@H](CC(C)C)C(N)=O` (HELM PEPTIDE1{[ac].S.[CN(C)CCCC[C@H](N[*:1])C(=O)[*:2]].L.[am]}$$$$V2.0): the half-maximal inhibitory concentration (IC50) in [2] is 1.51 nM.

As for `CC(=O)N[C@@H](CO)C(=O)N[C@@H](CCCCN)C(=O)N[C@H](CC(C)C)C(N)=O` (HELM PEPTIDE1{[ac].S.K.[dL].[am]}$$$$V2.0), the IC50 in series [2] was 2 nM. In the case of `CNCCCC[C@H](NC(=O)[C@H](CO)NC(C)=O)C(=O)N[C@@H](CC(C)C)C(N)=O` (HELM PEPTIDE1{[ac].S.[CNCCCC[C@H](N[*:1])C(=O)[*:2]].L.[am]}$$$$V2.0), the half-inhibitory concentration (IC50) in series [2] was 4.37 nM. In series [5], `CC(=O)N[C@@H](CO)C(=O)N[C@@H](CCCCN)C(=O)N[C@@H](CC(C)C)C(N)=O` (Ac-Ser-Lys-Leu-NH2) showed a half-life of 1.9 h. The same compound gave an IC50 in series [2] of 5.25 nM. The inhibition in [1] turned out to be 85%.

For the origin of these results see ChEMBL document CHEMBL4616693, “Identification of Inhibitors of Thrombospondin 1 Activation of TGF-β” (ACS Med Chem Lett, 2020).
